Measurements published in ChEMBL document CHEMBL1201862, “PubChem BioAssay data set” (2004).
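Five concentrations, 48 hours, 96-well plates. At the GI50, growth is halved.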 Active and inactive are the calls of the source. No stated cut-off is given here; in the data, active = GI50 up to about 1.1 µM and inactive = higher.

Tests used:
Experiment in all cases: NCI-60 cell line screen, 48 h
[1] = tested on: 786-0
[2] = tested on: A498
[3] = tested on: A549
[4] = tested on: ACHN
[5] = tested on: CAKI-1
[6] = tested on: CCRF-CEM
[7] = tested on: COLO 205
[8] = tested on: DLD-1
[9] = tested on: DMS-114
[10] = tested on: DMS-273
[11] = tested on: EKVX
[12] = tested on: HCC 2998
[13] = tested on: HCT-116
[14] = tested on: HL-60
[15] = tested on: HOP-18
[16] = tested on: HOP-62
[17] = tested on: HOP-92
[18] = tested on: HT-29
[19] = tested on: IGROV-1
[20] = tested on: K562
[21] = tested on: KM-20L2
[22] = tested on: KM12
[23] = tested on: LOX IMVI
[24] = tested on: LXFL 529
[25] = tested on: M14
[26] = tested on: M19-MEL
[27] = tested on: MOLT-4
[28] = tested on: Malme-3M
[29] = tested on: NCI-H226
[30] = tested on: NCI-H23
[31] = tested on: NCI-H460
[32] = tested on: NCI-H522
[33] = tested on: OVCAR-3
[34] = tested on: OVCAR-4
[35] = tested on: OVCAR-5
[36] = tested on: OVCAR-8
[37] = tested on: RPMI-8226
[38] = tested on: RXF 393
[39] = tested on: SF-268
[40] = tested on: SF-295
[41] = tested on: SF-539
[42] = tested on: SK-MEL-28
[43] = tested on: SK-MEL-2
[44] = tested on: SK-MEL-5
[45] = tested on: SK-OV-3
[46] = tested on: SN12C
[47] = tested on: SNB-19
[48] = tested on: SNB-75
[49] = tested on: SR
[50] = tested on: SW-620
[51] = tested on: TK-10
[52] = tested on: U-251
[53] = tested on: UACC-257
[54] = tested on: UACC-62
[55] = tested on: UO-31

Question: For `COc1cc2c3c(c1OC)Oc1ccc(cc1)CC1c4c(cc(OC)c(OC)c4Oc4ccc(cc4)CC3N(C)CC2)CCN1C` (stereo not given), which GI50 [1] is on record?
Answer: The GI50 was 19.8 µM (inactive).

Question: And the GI50 [2]?
Answer: The GI50 was 0.0169 µM (active).

Question: And the GI50 [3]?
Answer: Its GI50 is 26.2 µM (inactive).

Question: What about the GI50 [4] of the same compound?
Answer: The GI50 was 26.2 µM (inactive).

Question: What about the GI50 [5] of the same compound?
Answer: Its GI50 is 90.6 µM (inactive).

Question: And the GI50 [6]?
Answer: Its GI50 is 18.5 µM (inactive).

Question: And the GI50 [7]?
Answer: Its GI50 is 13.5 µM (inactive).

Question: What about the GI50 [8] of the same compound?
Answer: The GI50 was 29.2 µM (inactive).

Question: And the GI50 [9]?
Answer: Its GI50 is 19.8 µM (inactive).

Question: And the GI50 [10]?
Answer: Its GI50 is 15.3 µM (inactive).

Question: And the GI50 [11]?
Answer: Its GI50 is 67.6 µM (inactive).

Question: What about the GI50 [12] of the same compound?
Answer: The GI50 was 14 µM (inactive).

Question: And the GI50 [13]?
Answer: Its GI50 is 13.8 µM (inactive).

Question: And the GI50 [14]?
Answer: Its GI50 is 15.3 µM (inactive).

Question: What about the GI50 [15] of the same compound?
Answer: Its GI50 is 25.9 µM (inactive).

Question: And the GI50 [16]?
Answer: The GI50 was 22.4 µM (inactive).

Question: And the GI50 [17]?
Answer: The GI50 was 32.6 µM (inactive).

Question: What about the GI50 [18] of the same compound?
Answer: Its GI50 is 15.1 µM (inactive).

Question: And the GI50 [19]?
Answer: The GI50 was 13.4 µM (inactive).

Question: What about the GI50 [20] of the same compound?
Answer: The GI50 was 16.9 µM (inactive).

Question: And the GI50 [21]?
Answer: Its GI50 is 19.8 µM (inactive).

Question: And the GI50 [22]?
Answer: The GI50 was 34.4 µM (inactive).

Question: And the GI50 [23]?
Answer: The GI50 was 17.7 µM (inactive).

Question: And the GI50 [24]?
Answer: The GI50 was 20.6 µM (inactive).

Question: And the GI50 [25]?
Answer: The GI50 was 18.8 µM (inactive).

Question: And the GI50 [26]?
Answer: Its GI50 is 17.3 µM (inactive).

Question: What about the GI50 [27] of the same compound?
Answer: The GI50 was 21.8 µM (inactive).

Question: What about the GI50 [28] of the same compound?
Answer: Its GI50 is 20.3 µM (inactive).

Question: What about the GI50 [29] of the same compound?
Answer: The GI50 was 15.6 µM (inactive).

Question: And the GI50 [30]?
Answer: Its GI50 is 57.9 µM (inactive).

Question: And the GI50 [31]?
Answer: The GI50 was 18.7 µM (inactive).

Question: And the GI50 [32]?
Answer: Its GI50 is 12.7 µM (inactive).

Question: What about the GI50 [33] of the same compound?
Answer: Its GI50 is 18.6 µM (inactive).

Question: And the GI50 [34]?
Answer: Its GI50 is 13.3 µM (inactive).

Question: And the GI50 [35]?
Answer: The GI50 was 56.6 µM (inactive).

Question: What about the GI50 [36] of the same compound?
Answer: Its GI50 is 20.2 µM (inactive).

Question: What about the GI50 [37] of the same compound?
Answer: Its GI50 is 25.6 µM (inactive).

Question: What about the GI50 [38] of the same compound?
Answer: Its GI50 is 12.9 µM (inactive).

Question: What about the GI50 [39] of the same compound?
Answer: The GI50 was 27 µM (inactive).

Question: What about the GI50 [40] of the same compound?
Answer: Its GI50 is 18.5 µM (inactive).

Question: And the GI50 [41]?
Answer: The GI50 was 14.5 µM (inactive).

Question: And the GI50 [42]?
Answer: The GI50 was 18.8 µM (inactive).

Question: What about the GI50 [43] of the same compound?
Answer: The GI50 was 32.3 µM (inactive).

Question: And the GI50 [44]?
Answer: The GI50 was 16.7 µM (inactive).

Question: What about the GI50 [45] of the same compound?
Answer: Its GI50 is 28.2 µM (inactive).

Question: What about the GI50 [46] of the same compound?
Answer: Its GI50 is 19 µM (inactive).

Question: What about the GI50 [47] of the same compound?
Answer: Its GI50 is 33 µM (inactive).

Question: What about the GI50 [48] of the same compound?
Answer: Its GI50 is 21.8 µM (inactive).

Question: What about the GI50 [49] of the same compound?
Answer: Its GI50 is 2.88 µM (inactive).

Question: What about the GI50 [50] of the same compound?
Answer: Its GI50 is 15.1 µM (inactive).

Question: And the GI50 [51]?
Answer: The GI50 was 22.1 µM (inactive).

Question: And the GI50 [52]?
Answer: The GI50 was 15.8 µM (inactive).

Question: And the GI50 [53]?
Answer: The GI50 was 13.8 µM (inactive).

Question: What about the GI50 [54] of the same compound?
Answer: The GI50 was 19 µM (inactive).

Question: And the GI50 [55]?
Answer: Its GI50 is 15 µM (inactive).
